# ± gives the expanded uncertainty stated by the source.
# Assay: xn = mol fraction of the nth substance listed
# Settings: 100 kPa, Liquid; for viscosity: Falling or rolling sphere viscometry; for mass density: Vibrating tube method
smiles,measurement,setting,value
CCCCCCCCCCCCCC(=O)OC [methyl tetradecanoate] + CC1CCCCC1,viscosity,"293.15 K, x2 = 0",4.557 ± 0.1 mPa·s
same,viscosity,"293.15 K, x2 = 0.1",4.065 ± 0.09 mPa·s
same,viscosity,"293.15 K, x2 = 0.2",3.591 ± 0.079 mPa·s
same,viscosity,"293.15 K, x2 = 0.3",3.141 ± 0.069 mPa·s
same,viscosity,"293.15 K, x2 = 0.4003",2.706 ± 0.059 mPa·s
same,viscosity,"293.15 K, x2 = 0.5001",2.304 ± 0.05 mPa·s
same,viscosity,"293.15 K, x2 = 0.6",1.925 ± 0.042 mPa·s
same,viscosity,"293.15 K, x2 = 0.6999",1.578 ± 0.034 mPa·s
same,viscosity,"293.15 K, x2 = 0.8",1.267 ± 0.027 mPa·s
same,viscosity,"293.15 K, x2 = 0.8999",0.982 ± 0.021 mPa·s
same,mass density,"293.15 K, x2 = 0",867.17 ± 1.8 kg/m3
same,mass density,"293.15 K, x2 = 0.1",862.3 ± 1.8 kg/m3
same,mass density,"293.15 K, x2 = 0.2",856.82 ± 1.7 kg/m3
same,mass density,"293.15 K, x2 = 0.3",850.69 ± 1.7 kg/m3
same,mass density,"293.15 K, x2 = 0.4003",843.72 ± 1.7 kg/m3
same,mass density,"293.15 K, x2 = 0.5001",835.76 ± 1.7 kg/m3
same,mass density,"293.15 K, x2 = 0.6",826.55 ± 1.7 kg/m3
same,mass density,"293.15 K, x2 = 0.6999",815.89 ± 1.6 kg/m3
same,mass density,"293.15 K, x2 = 0.8",803.17 ± 1.6 kg/m3
same,mass density,"293.15 K, x2 = 0.8999",787.98 ± 1.6 kg/m3
same,viscosity,"298.15 K, x2 = 0",3.979 ± 0.088 mPa·s
same,viscosity,"298.15 K, x2 = 0.1",3.575 ± 0.079 mPa·s
same,viscosity,"298.15 K, x2 = 0.2",3.176 ± 0.07 mPa·s
same,viscosity,"298.15 K, x2 = 0.3",2.792 ± 0.061 mPa·s
same,viscosity,"298.15 K, x2 = 0.4003",2.424 ± 0.053 mPa·s
same,viscosity,"298.15 K, x2 = 0.5001",2.072 ± 0.045 mPa·s
same,viscosity,"298.15 K, x2 = 0.6",1.743 ± 0.038 mPa·s
same,viscosity,"298.15 K, x2 = 0.6999",1.438 ± 0.031 mPa·s
same,viscosity,"298.15 K, x2 = 0.8",1.163 ± 0.025 mPa·s
same,viscosity,"298.15 K, x2 = 0.8999",0.91 ± 0.02 mPa·s
same,mass density,"298.15 K, x2 = 0",863.35 ± 1.8 kg/m3
same,mass density,"298.15 K, x2 = 0.1",858.46 ± 1.7 kg/m3
same,mass density,"298.15 K, x2 = 0.2",853 ± 1.7 kg/m3
same,mass density,"298.15 K, x2 = 0.3",846.86 ± 1.7 kg/m3
same,mass density,"298.15 K, x2 = 0.4003",839.87 ± 1.7 kg/m3
same,mass density,"298.15 K, x2 = 0.5001",831.9 ± 1.7 kg/m3
same,mass density,"298.15 K, x2 = 0.6",822.64 ± 1.7 kg/m3
same,mass density,"298.15 K, x2 = 0.6999",811.92 ± 1.6 kg/m3
same,mass density,"298.15 K, x2 = 0.8",799.13 ± 1.6 kg/m3
same,mass density,"298.15 K, x2 = 0.8999",783.83 ± 1.6 kg/m3
same,viscosity,"303.15 K, x2 = 0",3.519 ± 0.078 mPa·s
same,viscosity,"303.15 K, x2 = 0.1",3.179 ± 0.07 mPa·s
same,viscosity,"303.15 K, x2 = 0.2",2.838 ± 0.062 mPa·s
same,viscosity,"303.15 K, x2 = 0.3",2.507 ± 0.055 mPa·s
same,viscosity,"303.15 K, x2 = 0.4003",2.19 ± 0.048 mPa·s
same,viscosity,"303.15 K, x2 = 0.5001",1.884 ± 0.041 mPa·s
same,viscosity,"303.15 K, x2 = 0.6",1.6 ± 0.035 mPa·s
same,viscosity,"303.15 K, x2 = 0.6999",1.327 ± 0.029 mPa·s
same,viscosity,"303.15 K, x2 = 0.8",1.078 ± 0.023 mPa·s
same,viscosity,"303.15 K, x2 = 0.8999",0.848 ± 0.018 mPa·s
same,mass density,"303.15 K, x2 = 0",859.54 ± 1.8 kg/m3
same,mass density,"303.15 K, x2 = 0.1",854.64 ± 1.7 kg/m3
same,mass density,"303.15 K, x2 = 0.2",849.17 ± 1.7 kg/m3
same,mass density,"303.15 K, x2 = 0.3",843.02 ± 1.7 kg/m3
same,mass density,"303.15 K, x2 = 0.4003",836.01 ± 1.7 kg/m3
same,mass density,"303.15 K, x2 = 0.5001",828.01 ± 1.7 kg/m3
same,mass density,"303.15 K, x2 = 0.6",818.71 ± 1.6 kg/m3
same,mass density,"303.15 K, x2 = 0.6999",807.93 ± 1.6 kg/m3
same,mass density,"303.15 K, x2 = 0.8",795.07 ± 1.6 kg/m3
same,mass density,"303.15 K, x2 = 0.8999",779.65 ± 1.6 kg/m3
same,viscosity,"308.15 K, x2 = 0",3.093 ± 0.069 mPa·s
same,viscosity,"308.15 K, x2 = 0.1",2.803 ± 0.062 mPa·s
same,viscosity,"308.15 K, x2 = 0.2",2.515 ± 0.055 mPa·s
same,viscosity,"308.15 K, x2 = 0.3",2.234 ± 0.049 mPa·s
same,viscosity,"308.15 K, x2 = 0.4003",1.962 ± 0.043 mPa·s
same,viscosity,"308.15 K, x2 = 0.5001",1.695 ± 0.037 mPa·s
same,viscosity,"308.15 K, x2 = 0.6",1.445 ± 0.031 mPa·s
same,viscosity,"308.15 K, x2 = 0.6999",1.205 ± 0.026 mPa·s
same,viscosity,"308.15 K, x2 = 0.8",0.987 ± 0.021 mPa·s
same,viscosity,"308.15 K, x2 = 0.8999",0.782 ± 0.017 mPa·s
same,mass density,"308.15 K, x2 = 0",855.74 ± 1.7 kg/m3
same,mass density,"308.15 K, x2 = 0.1",850.83 ± 1.7 kg/m3
same,mass density,"308.15 K, x2 = 0.2",845.36 ± 1.7 kg/m3
same,mass density,"308.15 K, x2 = 0.3",839.19 ± 1.7 kg/m3
same,mass density,"308.15 K, x2 = 0.4003",832.16 ± 1.7 kg/m3
same,mass density,"308.15 K, x2 = 0.5001",824.11 ± 1.7 kg/m3
same,mass density,"308.15 K, x2 = 0.6",814.78 ± 1.6 kg/m3
same,mass density,"308.15 K, x2 = 0.6999",803.92 ± 1.6 kg/m3
same,mass density,"308.15 K, x2 = 0.8",791 ± 1.6 kg/m3
same,mass density,"308.15 K, x2 = 0.8999",775.46 ± 1.6 kg/m3
same,viscosity,"313.15 K, x2 = 0",2.797 ± 0.062 mPa·s
same,viscosity,"313.15 K, x2 = 0.1",2.552 ± 0.056 mPa·s
same,viscosity,"313.15 K, x2 = 0.2",2.302 ± 0.051 mPa·s
same,viscosity,"313.15 K, x2 = 0.3",2.054 ± 0.045 mPa·s
same,viscosity,"313.15 K, x2 = 0.4003",1.803 ± 0.039 mPa·s
same,viscosity,"313.15 K, x2 = 0.5001",1.564 ± 0.034 mPa·s
same,viscosity,"313.15 K, x2 = 0.6",1.336 ± 0.029 mPa·s
same,viscosity,"313.15 K, x2 = 0.6999",1.121 ± 0.024 mPa·s
same,viscosity,"313.15 K, x2 = 0.8",0.918 ± 0.02 mPa·s
same,viscosity,"313.15 K, x2 = 0.8999",0.735 ± 0.016 mPa·s
same,mass density,"313.15 K, x2 = 0",851.94 ± 1.7 kg/m3
same,mass density,"313.15 K, x2 = 0.1",847.02 ± 1.7 kg/m3
same,mass density,"313.15 K, x2 = 0.2",841.53 ± 1.7 kg/m3
same,mass density,"313.15 K, x2 = 0.3",835.34 ± 1.7 kg/m3
same,mass density,"313.15 K, x2 = 0.4003",828.29 ± 1.7 kg/m3
same,mass density,"313.15 K, x2 = 0.5001",820.21 ± 1.6 kg/m3
same,mass density,"313.15 K, x2 = 0.6",810.83 ± 1.6 kg/m3
same,mass density,"313.15 K, x2 = 0.6999",799.9 ± 1.6 kg/m3
same,mass density,"313.15 K, x2 = 0.8",786.91 ± 1.6 kg/m3
same,mass density,"313.15 K, x2 = 0.8999",771.26 ± 1.6 kg/m3
same,viscosity,"318.15 K, x2 = 0",2.544 ± 0.056 mPa·s
same,viscosity,"318.15 K, x2 = 0.1",2.325 ± 0.051 mPa·s
same,viscosity,"318.15 K, x2 = 0.2",2.101 ± 0.046 mPa·s
same,viscosity,"318.15 K, x2 = 0.3",1.879 ± 0.041 mPa·s
same,viscosity,"318.15 K, x2 = 0.4003",1.661 ± 0.036 mPa·s
same,viscosity,"318.15 K, x2 = 0.5001",1.45 ± 0.031 mPa·s
same,viscosity,"318.15 K, x2 = 0.6",1.249 ± 0.027 mPa·s
same,viscosity,"318.15 K, x2 = 0.6999",1.052 ± 0.023 mPa·s
same,viscosity,"318.15 K, x2 = 0.8",0.868 ± 0.019 mPa·s
same,viscosity,"318.15 K, x2 = 0.8999",0.695 ± 0.015 mPa·s
same,mass density,"318.15 K, x2 = 0",848.14 ± 1.7 kg/m3
same,mass density,"318.15 K, x2 = 0.1",843.22 ± 1.7 kg/m3
same,mass density,"318.15 K, x2 = 0.2",837.71 ± 1.7 kg/m3
same,mass density,"318.15 K, x2 = 0.3",831.5 ± 1.7 kg/m3
same,mass density,"318.15 K, x2 = 0.4003",824.42 ± 1.7 kg/m3
same,mass density,"318.15 K, x2 = 0.5001",816.31 ± 1.6 kg/m3
same,mass density,"318.15 K, x2 = 0.6",806.88 ± 1.6 kg/m3
same,mass density,"318.15 K, x2 = 0.6999",795.9 ± 1.6 kg/m3
same,mass density,"318.15 K, x2 = 0.8",782.82 ± 1.6 kg/m3
same,mass density,"318.15 K, x2 = 0.8999",767.04 ± 1.5 kg/m3
same,viscosity,"323.15 K, x2 = 0",2.308 ± 0.051 mPa·s
same,viscosity,"323.15 K, x2 = 0.1",2.115 ± 0.047 mPa·s
same,viscosity,"323.15 K, x2 = 0.2",1.92 ± 0.042 mPa·s
same,viscosity,"323.15 K, x2 = 0.3",1.728 ± 0.038 mPa·s
same,viscosity,"323.15 K, x2 = 0.4003",1.534 ± 0.033 mPa·s
same,viscosity,"323.15 K, x2 = 0.5001",1.345 ± 0.029 mPa·s
same,viscosity,"323.15 K, x2 = 0.6",1.161 ± 0.025 mPa·s
same,viscosity,"323.15 K, x2 = 0.6999",0.985 ± 0.021 mPa·s
same,viscosity,"323.15 K, x2 = 0.8",0.819 ± 0.018 mPa·s
same,viscosity,"323.15 K, x2 = 0.8999",0.658 ± 0.014 mPa·s
same,mass density,"323.15 K, x2 = 0",844.34 ± 1.7 kg/m3
same,mass density,"323.15 K, x2 = 0.1",839.41 ± 1.7 kg/m3
same,mass density,"323.15 K, x2 = 0.2",833.87 ± 1.7 kg/m3
same,mass density,"323.15 K, x2 = 0.3",827.63 ± 1.7 kg/m3
same,mass density,"323.15 K, x2 = 0.4003",820.53 ± 1.7 kg/m3
same,mass density,"323.15 K, x2 = 0.5001",812.38 ± 1.6 kg/m3
same,mass density,"323.15 K, x2 = 0.6",802.92 ± 1.6 kg/m3
same,mass density,"323.15 K, x2 = 0.6999",791.88 ± 1.6 kg/m3
same,mass density,"323.15 K, x2 = 0.8",778.71 ± 1.6 kg/m3
same,mass density,"323.15 K, x2 = 0.8999",762.81 ± 1.5 kg/m3
